PubChem BioAssay AID256 (DTP/NCI, 2004)
Values joined by “and” are separate entries in the source; they are usually repeats but may differ in a detail not shown here. Equal entries are not always repeated. Toxic doses and inconclusive results are not listed.

System: CD2F1 mice, L1210 leukemia ip, survival T/C
Test: NCI In Vivo Anticancer Drug Screen. Data for tumor model L1210 Leukemia (intraperitoneal) in CD2F1 (CDF1) mice
Conditions: higher = longer survival
Outline: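 Antitumor effect is scored in animals hosting a serially transplanted tumor. Values compare compound-dosed animals against vehicle-only controls as a simple quotient.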

[1] = endpoint: mean survival time, dose: 100.0 mg/kg/injection, schedule: Q01DX009 (ip), vehicle: saline with Tween-80
[2] = endpoint: mean survival time, dose: 200.0 mg/kg/injection, schedule: Q01DX009 (ip), vehicle: saline with Tween-80
[3] = endpoint: mean survival time, dose: 400.0 mg/kg/injection, schedule: Q01DX009 (ip), vehicle: saline with Tween-80
[4] = endpoint: mean survival time, dose: 100.0 mg/kg/injection, schedule: Q01DX001 (ip), vehicle: saline
[5] = endpoint: mean survival time, dose: 200.0 mg/kg/injection, schedule: Q01DX001 (ip), vehicle: saline
[6] = endpoint: mean survival time, dose: 400.0 mg/kg/injection, schedule: Q01DX001 (ip), vehicle: saline
[7] = endpoint: mean survival time, dose: 50.0 mg/kg/injection, schedule: Q01DX009 (ip), vehicle: water
[8] = endpoint: mean survival time, dose: 100.0 mg/kg/injection, schedule: Q01DX009 (ip), vehicle: water
[9] = endpoint: mean survival time, dose: 200.0 mg/kg/injection, schedule: Q01DX009 (ip), vehicle: water

CC(=O)C[n+]1ccc(C)cc1Sc1ccccc1C
T/C (endpoint: median survival time, dose: 25.0 mg/kg/injection, schedule: Q01DX009 (ip), vehicle: saline with Tween-80): 98 % of control | T/C (endpoint: median survival time, dose: 50.0 mg/kg/injection, schedule: Q01DX009 (ip), vehicle: saline with Tween-80): 96 % of control | T/C (endpoint: median survival time, dose: 100.0 mg/kg/injection, schedule: Q01DX009 (ip), vehicle: saline with Tween-80): 98 % of control

CCCCCCCC[n+]1cccc(C(=O)c2ccccc2)c1
T/C (endpoint: mean survival time, dose: 75.0 mg/kg/injection, schedule: Q01DX001 (ip), vehicle: saline): 105 % of control

c1ccc2c3c(ccc2c1)OCN(C12CC4CC(CC(C4)C1)C2)C3
T/C [1]: 96 % of control | T/C [2]: 102 % of control | T/C [3]: 90 % of control

S=C(S)NCCNC(=S)S
T/C (endpoint: mean survival time, dose: 100.0 mg/kg/injection, schedule: Q01DX009 (ip), vehicle: saline): 102 % of control | T/C (endpoint: mean survival time, dose: 200.0 mg/kg/injection, schedule: Q01DX009 (ip), vehicle: saline): 100 % of control | T/C (endpoint: mean survival time, dose: 400.0 mg/kg/injection, schedule: Q01DX009 (ip), vehicle: saline): 90 % of control

CCCC(CCC)(C(N)=O)C(=O)O
T/C [4]: 97 % of control | T/C [5]: 97 % of control | T/C [6]: 94 % of control

C1CN(SSN2CCOCC2)CCO1
T/C (endpoint: mean survival time, dose: 100.0 mg/kg/injection, schedule: Q04DX003 (ip), vehicle: saline with Tween-80): 100 % of control | T/C (endpoint: mean survival time, dose: 200.0 mg/kg/injection, schedule: Q04DX003 (ip), vehicle: saline with Tween-80): 92 % of control

C=CCSc1ncnc2c1cnn2C1OC(CO)C(O)C1O (centres undefined)
T/C (endpoint: mean survival time, dose: 12.5 mg/kg/injection, schedule: Q01DX005 (ip), vehicle: water): 102 % of control | T/C (endpoint: mean survival time, dose: 25.0 mg/kg/injection, schedule: Q01DX005 (ip), vehicle: water): 98 % of control | T/C (endpoint: mean survival time, dose: 50.0 mg/kg/injection, schedule: Q01DX005 (ip), vehicle: water): 98 % of control | T/C (endpoint: mean survival time, dose: 100.0 mg/kg/injection, schedule: Q01DX005 (ip), vehicle: water): 102 % of control

O=NNc1cccc(NN=O)n1
T/C (endpoint: median survival time, dose: 6.25 mg/kg/injection, schedule: Q01DX005 (ip), vehicle: saline): 115 % of control and 108 % of control | T/C (endpoint: median survival time, dose: 12.5 mg/kg/injection, schedule: Q01DX005 (ip), vehicle: saline): 121 % of control | T/C (endpoint: median survival time, dose: 29.0 mg/kg/injection, schedule: Q01DX005 (ip), vehicle: saline): 153 % of control | T/C (endpoint: median survival time, dose: 44.0 mg/kg/injection, schedule: Q01DX005 (ip), vehicle: saline): 166 % of control | T/C (endpoint: median survival time, dose: 100.0 mg/kg/injection, schedule: Q01DX005 (ip), vehicle: saline): 122 % of control and 91 % of control and 98 % of control

CCN(CCNc1ccc(C)c2sc3cc(Cl)ccc3c(=O)c12)CC(C)O (centres undefined)
T/C (endpoint: mean survival time, dose: 50.0 mg/kg/injection, schedule: Q01DX001 (ip), vehicle: saline): 94 % of control | T/C [4]: 88 % of control | T/C (endpoint: mean survival time, dose: 100.0 mg/kg/injection, schedule: Q04DX003 (ip), vehicle: saline): 94 % of control | T/C [5]: 94 % of control | T/C (endpoint: mean survival time, dose: 200.0 mg/kg/injection, schedule: Q04DX003 (ip), vehicle: saline): 94 % of control | T/C [6]: 96 % of control | T/C (endpoint: mean survival time, dose: 400.0 mg/kg/injection, schedule: Q04DX003 (ip), vehicle: saline): 102 % of control

CCCCCCSC(=O)Nc1ccc(C)c(NC(=O)SCCCCCC)c1
T/C (endpoint: mean survival time, dose: 50.0 mg/kg/injection, schedule: Q01DX009 (ip), vehicle: saline with Tween-80): 95 % of control | T/C [1]: 93 % of control | T/C [2]: 93 % of control

COc1ccc2ccccc2c1C(=O)CCCc1ccccc1
T/C (endpoint: mean survival time, dose: 12.5 mg/kg/injection, schedule: Q01DX009 (ip), vehicle: water): 97 % of control | T/C (endpoint: mean survival time, dose: 25.0 mg/kg/injection, schedule: Q01DX009 (ip), vehicle: water): 96 % of control | T/C [7]: 97 % of control | T/C [8]: 96 % of control | T/C [9]: 96 % of control

S=c1cc(-c2ccccc2)ss1
T/C [1]: 97 % of control | T/C [2]: 97 % of control | T/C [3]: 98 % of control

COc1ccc(/C=C(/C#N)C(N)=O)cc1Br
T/C (endpoint: mean survival time, dose: 50.0 mg/kg/injection, schedule: Q01DX009 (ip), vehicle: acetone): 96 % of control | T/C (endpoint: mean survival time, dose: 100.0 mg/kg/injection, schedule: Q01DX009 (ip), vehicle: acetone): 98 % of control | T/C (endpoint: mean survival time, dose: 200.0 mg/kg/injection, schedule: Q01DX009 (ip), vehicle: acetone): 93 % of control

NCC(=O)NCC(=O)OCCO
T/C [7]: 97 % of control | T/C [8]: 93 % of control | T/C [9]: 91 % of control | T/C (endpoint: mean survival time, dose: 400.0 mg/kg/injection, schedule: Q01DX009 (ip), vehicle: water): 90 % of control
